{"source": "paper PMC8078842", "about": "(PLoS Neglected Tropical Diseases, 2021)", "assay": "In situ brain/choroid plexus perfusion (10 or 30 minutes) with capillary depletion", "conditions": "for RTISSUE/PLASMA% (mean±SEM) Caudate putamen / RTISSUE/PLASMA% (mean±SEM) Cerebellum / RTISSUE/PLASMA% (mean±SEM) Choroid plexus / RTISSUE/PLASMA% (mean±SEM) Corpus callosum / RTISSUE/PLASMA% (mean±SEM) Frontal cortex / RTISSUE/PLASMA% (mean±SEM) Hippocampus / RTISSUE/PLASMA% (mean±SEM) Homogenate / RTISSUE/PLASMA% (mean±SEM) Hypothalamus / RTISSUE/PLASMA% (mean±SEM) Occipital cortex / RTISSUE/PLASMA% (mean±SEM) Pellet / RTISSUE/PLASMA% (mean±SEM) Pineal gland / RTISSUE/PLASMA% (mean±SEM) Pituitary gland / RTISSUE/PLASMA% (mean±SEM) Pons / RTISSUE/PLASMA% (mean±SEM) Supernatant / RTISSUE/PLASMA% (mean±SEM) Thalamus / RTISSUE/PLASMA% (mean ± SEM) of [^3H]pentamidine: not corrected for vascular space; for RTISSUE/PLASMA% (mean ± SEM) of [^3H]pentamidine: 30 min perfusion", "key": {"[1]": {"conditions": "15.7 nM, 10 minutes perfusion, corrected for vascular space"}, "[2]": {"conditions": "15.7 nM, 10 minutes perfusion, corrected for vascular space, listed as [^3H]pentamidine"}, "[3]": {"conditions": "10 minutes perfusion, listed as Control A [^3H]pentamidine"}, "[4]": {"conditions": "10 minutes perfusion, listed as Control B [^3H]pentamidine"}}, "note": "“And” between values parts separate entries of the source, which are not always exact repeats. Equal values may be shown once."}
{"substance": "[^3H(G)]pentamidine", "values": [{"measurement": "RCORR TISSUE% caudate putamen", "setting": "[1]", "value": "4.02 (± 1.03) %"}, {"measurement": "RCORR TISSUE% cerebellum", "setting": "[1]", "value": "3.82 (± 0.64) %"}, {"measurement": "RCORR TISSUE% choroid plexus", "setting": "[1]", "value": "490.9 (± 103.1) %"}, {"measurement": "RCORR TISSUE% corpus callosum", "setting": "[1]", "value": "6.73 (± 2.65) %"}, {"measurement": "RCORR TISSUE% frontal cortex", "setting": "[1]", "value": "4.29 (± 0.93) %"}, {"measurement": "RCORR TISSUE% hippocampus", "setting": "[1]", "value": "4.37 (± 0.97) %"}, {"measurement": "RCORR TISSUE% homogenate", "setting": "[1]", "value": "4.61 (± 0.94) %"}, {"measurement": "RCORR TISSUE% hypothalamus", "setting": "[1]", "value": "5.56 (± 1.58) %"}, {"measurement": "RCORR TISSUE% occipital cortex", "setting": "[1]", "value": "4.03 (± 0.98) %"}, {"measurement": "RCORR TISSUE% pellet", "setting": "[1]", "value": "12.54 (± 1.74) %"}, {"measurement": "RCORR TISSUE% pineal gland", "setting": "[1]", "value": "284.7 (± 81.4) %"}, {"measurement": "RCORR TISSUE% pons", "setting": "[1]", "value": "7.16 (± 1.75) %"}, {"measurement": "RCORR TISSUE% supernatant", "setting": "[1]", "value": "less than 2%"}, {"measurement": "RCORR TISSUE% thalamus", "setting": "[1]", "value": "4.76 (± 0.91) %"}, {"measurement": "RCORR TISSUE% pituitary gland", "setting": "[2]", "value": "182.75(± 29.6) % and 182.75(± 37.5) %"}, {"measurement": "RCORR TISSUE% supernatant", "setting": "[2]", "value": "1.99 (± 0.45) %"}, {"measurement": "RTISSUE/PLASMA% (mean±SEM) Caudate putamen", "setting": "[3]", "value": "4.08 (± 0.84) %"}, {"measurement": "RTISSUE/PLASMA% (mean±SEM) Cerebellum", "setting": "[3]", "value": "5.28 (± 0.56) %"}, {"measurement": "RTISSUE/PLASMA% (mean±SEM) Choroid plexus", "setting": "[3]", "value": "385.74 (± 24.35) %"}, {"measurement": "RTISSUE/PLASMA% (mean±SEM) Corpus callosum", "setting": "[3]", "value": "5.32 (± 1.47) %"}, {"measurement": "RTISSUE/PLASMA% (mean±SEM) Frontal cortex", "setting": "[3]", "value": "4.88 (± 1.18) %"}, {"measurement": "RTISSUE/PLASMA% (mean±SEM) Hippocampus", "setting": "[3]", "value": "3.48 (± 0.94) %"}, {"measurement": "RTISSUE/PLASMA% (mean±SEM) Homogenate", "setting": "[3]", "value": "4.03 (± 0.78) %"}, {"measurement": "RTISSUE/PLASMA% (mean±SEM) Hypothalamus", "setting": "[3]", "value": "5.96 (± 1.23) %"}, {"measurement": "RTISSUE/PLASMA% (mean±SEM) Occipital cortex", "setting": "[3]", "value": "4.56 (±0.87) %"}, {"measurement": "RTISSUE/PLASMA% (mean±SEM) Pellet", "setting": "[3]", "value": "4.11 (± 1.24) %"}, {"measurement": "RTISSUE/PLASMA% (mean±SEM) Pineal gland", "setting": "[3]", "value": "367.59 (± 39.97) %"}, {"measurement": "RTISSUE/PLASMA% (mean±SEM) Pituitary gland", "setting": "[3]", "value": "251.21 (± 66.80) %"}, {"measurement": "RTISSUE/PLASMA% (mean±SEM) Pons", "setting": "[3]", "value": "7.81 (± 0.90) %"}, {"measurement": "RTISSUE/PLASMA% (mean±SEM) Supernatant", "setting": "[3]", "value": "2.54 (± 0.39) %"}, {"measurement": "RTISSUE/PLASMA% (mean±SEM) Thalamus", "setting": "[3]", "value": "4.34 (± 0.83) %"}, {"measurement": "RTISSUE/PLASMA% (mean±SEM) Caudate putamen", "setting": "[4]", "value": "5.40 (± 1.00) %"}, {"measurement": "RTISSUE/PLASMA% (mean±SEM) Cerebellum", "setting": "[4]", "value": "6.54 (± 0.70) %"}, {"measurement": "RTISSUE/PLASMA% (mean±SEM) Choroid plexus", "setting": "[4]", "value": "535.95 (± 107.86) %"}, {"measurement": "RTISSUE/PLASMA% (mean±SEM) Corpus callosum", "setting": "[4]", "value": "9.17 (± 2.67) %"}, {"measurement": "RTISSUE/PLASMA% (mean±SEM) Frontal cortex", "setting": "[4]", "value": "6.23 (± 0.92) %"}, {"measurement": "RTISSUE/PLASMA% (mean±SEM) Hippocampus", "setting": "[4]", "value": "5.60 (± 1.43) %"}, {"measurement": "RTISSUE/PLASMA% (mean±SEM) Homogenate", "setting": "[4]", "value": "6.20 (± 0.97) %"}, {"measurement": "RTISSUE/PLASMA% (mean±SEM) Hypothalamus", "setting": "[4]", "value": "8.14 (± 1.75) %"}, {"measurement": "RTISSUE/PLASMA% (mean±SEM) Occipital cortex", "setting": "[4]", "value": "5.67 (± 0.99) %"}, {"measurement": "RTISSUE/PLASMA% (mean±SEM) Pellet", "setting": "[4]", "value": "13.19 (± 1.79) %"}, {"measurement": "RTISSUE/PLASMA% (mean±SEM) Pineal gland", "setting": "[4]", "value": "361.76 (± 79.03) %"}, {"measurement": "RTISSUE/PLASMA% (mean±SEM) Pituitary gland", "setting": "[4]", "value": "203.27(± 32.85) %"}, {"measurement": "RTISSUE/PLASMA% (mean±SEM) Pons", "setting": "[4]", "value": "10.72 (± 1.82) %"}, {"measurement": "RTISSUE/PLASMA% (mean±SEM) Supernatant", "setting": "[4]", "value": "3.00 (± 0.43) %"}, {"measurement": "RTISSUE/PLASMA% (mean±SEM) Thalamus", "setting": "[4]", "value": "5.95 (± 0.92) %"}, {"measurement": "Accumulation corrected for vascular space, hippocampus", "setting": "30 minutes of perfusion", "value": 6.9, "unit": "%"}, {"measurement": "Accumulation corrected for vascular space, hypothalamus", "setting": "30 minutes of perfusion", "value": 15, "unit": "%"}, {"measurement": "Accumulation corrected for vascular space, pons", "setting": "30 minutes of perfusion", "value": 10.9, "unit": "%"}, {"measurement": "RTISSUE/PLASMA% (mean ± SEM) of [^3H]pentamidine", "setting": "Caudate putamen, 0.01% F68 + 15.7 nM pent", "value": "6.90 (± 1.58) %"}, {"measurement": "RTISSUE/PLASMA% (mean ± SEM) of [^3H]pentamidine", "setting": "Caudate putamen, 0.1% F68 + 15.7 nM pent", "value": "10.41 (± 1.18) %"}, {"measurement": "RTISSUE/PLASMA% (mean ± SEM) of [^3H]pentamidine", "setting": "Caudate putamen, 0.5% F68 + 15.7 nM pent", "value": "13.07 (± 3.45) %"}, {"measurement": "RTISSUE/PLASMA% (mean ± SEM) of [^3H]pentamidine", "setting": "Caudate putamen, Control (15.7 nM pent)", "value": "8.65 (± 0.28) %"}, {"measurement": "RTISSUE/PLASMA% (mean ± SEM) of [^3H]pentamidine", "setting": "Cerebellum, 0.01% F68 + 15.7 nM pent", "value": "9.38 (± 2.47) %"}, {"measurement": "RTISSUE/PLASMA% (mean ± SEM) of [^3H]pentamidine", "setting": "Cerebellum, 0.1% F68 + 15.7 nM pent", "value": "14.44 (± 2.47) %"}, {"measurement": "RTISSUE/PLASMA% (mean ± SEM) of [^3H]pentamidine", "setting": "Cerebellum, 0.5% F68 + 15.7 nM pent", "value": "17.28 (± 3.54) %"}, {"measurement": "RTISSUE/PLASMA% (mean ± SEM) of [^3H]pentamidine", "setting": "Cerebellum, Control (15.7 nM pent)", "value": "12.92 (± 1.10) %"}, {"measurement": "RTISSUE/PLASMA% (mean ± SEM) of [^3H]pentamidine", "setting": "Choroid plexus, 0.01% F68 + 15.7 nM pent", "value": "835.26 (± 260.20) %"}, {"measurement": "RTISSUE/PLASMA% (mean ± SEM) of [^3H]pentamidine", "setting": "Choroid plexus, 0.1% F68 + 15.7 nM pent", "value": "944.85 (± 235.90) %"}, {"measurement": "RTISSUE/PLASMA% (mean ± SEM) of [^3H]pentamidine", "setting": "Choroid plexus, 0.5% F68 + 15.7 nM pent", "value": "1844.80 (± 493.51) %"}]}
